pIC50: −log10 of the molar value.

This assay concerns the target T1, human LPAR1 (Homo sapiens, UniProt Q92633).
T1 construct: host or cells: TangoEDG2-bla U2OS cells
Description: Arrestin assay (Arrestin Reporter EDG2-bla U2OS), inhibition of LPA-stimulated signal. Particulars: TangoEDG2-bla U2OS cells expressing human LPAR1; 0.25 μM LPA; read-out: Arrestin Reporter EDG2-bla U2OS Human Merged IC50. Format: cell-based. An outline of the steps: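 TangoEDG2-bla U2OS cells (1×10^4/well, plated 18-20 h) were preincubated 1 h at 37 °C with compound (12-point, 3-fold, 10 μM to 0.00006 μM), then stimulated 3 h with 0.25 μM LPA final. LiveBLAzer FRET B/G 460/530 nm emission ratio gave % inhibition; IC50 from 4-parameter variable-slope fit.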

T1 sequence (Q92633 whole entry): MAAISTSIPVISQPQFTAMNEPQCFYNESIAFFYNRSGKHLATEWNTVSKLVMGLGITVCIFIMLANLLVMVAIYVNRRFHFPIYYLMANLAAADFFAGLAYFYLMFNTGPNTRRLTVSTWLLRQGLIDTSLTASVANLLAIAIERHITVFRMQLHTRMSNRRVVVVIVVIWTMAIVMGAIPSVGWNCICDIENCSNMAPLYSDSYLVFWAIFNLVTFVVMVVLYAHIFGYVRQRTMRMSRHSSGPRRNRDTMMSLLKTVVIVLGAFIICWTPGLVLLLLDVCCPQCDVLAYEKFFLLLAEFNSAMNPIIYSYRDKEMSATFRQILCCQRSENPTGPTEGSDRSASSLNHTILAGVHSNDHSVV

In the case of `COC(=O)N[C@]1(C(=O)O)C[C@@H](N2CCC(C(=O)Nc3ccc(Cl)cc3OC(F)F)(n3nccc3C(C)C)CC2)C1` [Compound 131], the pIC50 (in general, the IC50 on a negative log10 scale, so that one unit is a factor of ten) was 6.87.
In the case of `CC(C)c1ccnn1C1(C(=O)Nc2ccc(Cl)cc2OC(F)F)CCN([C@H]2C[C@@](NS(C)(=O)=O)(C(=O)O)C2)CC1` [Compound 132, (1r,3r)-3-[4-[[4-chloro-2-(difluoromethoxy)phenyl]carbamoyl]-4-(5-isopropylpyrazol-1-yl)-1-piperidyl]-1-(methanesulfonamido) cyclobutanecarboxylic acid], the negative logarithm of the IC50 (pIC50) was 6.75.
Regarding `CC(C)c1ccnn1C1(C(=O)Nc2ccc(Cl)cc2OC(F)F)CCN(CC(CCO)C(=O)O)CC1` (centres unmarked) [Compound 133, 2-[[4-[[4-chloro-2-(difluoromethoxy)phenyl]carbamoyl]-4-(5-isopropylpyrazol-1-yl)-1-piperidyl]methyl]-4-hydroxy-butanoic acid], the negative-log IC50 (pIC50) is 7.13.
For `CCOC(CN1CCC(C(=O)Nc2ccc(Cl)cc2OC(F)F)(n2nccc2C(C)C)CC1)C(=O)O` (centres unmarked) [Compound 134, 3-[4-[[4-chloro-2-(difluoromethoxy)phenyl]carbamoyl]-4-(5-isopropylpyrazol-1-yl)-1-piperidyl]-2-ethoxy-propanoic acid] the value was 7.15; for `COCOCC(CN1CCC(C(=O)Nc2ccc(Cl)cc2OC(F)F)(n2nccc2C(C)C)CC1)C(=O)O` (centres unmarked) [Compound 135, 2-[[4-[[4-chloro-2-(difluoromethoxy)phenyl]carbamoyl]-4-(5-isopropylpyrazol-1-yl)-1-piperidyl]methyl]-3-(methoxymethoxy) propanoic acid], 7.11.
For `CC(C)c1ccnn1C1(C(=O)Nc2ccc(Cl)cc2OC(F)F)CCN(CC(C(=O)O)C2CCOC2)CC1` (centres unmarked) [Compound 136, 3-[4-[[4-chloro-2-(difluoromethoxy)phenyl]carbamoyl]-4-(5-isopropylpyrazol-1-yl)-1-piperidyl]-2-tetrahydrofuran-3-yl-propanoic acid] the value was 7.33; for `CC(C)c1ccnn1C1(C(=O)Nc2ccc(Cl)cc2OC(F)F)CCN([C@@H]2CO[C@@H](C(=O)O)C2)CC1` [Compound 138, (2R,4S)-4-[4-[[4-chloro-2-(difluoromethoxy)phenyl]carbamoyl]-4-(5-isopropylpyrazol-1-yl)-1-piperidyl]tetrahydrofuran-2-carboxylic acid], 7.14.
For `CC(C)c1ccnn1C1(C(=O)Nc2ccc(Cl)cc2OC(F)F)CCN([C@H]2CO[C@@H](C(=O)O)C2)CC1` [Compound 139, (2R,4R)-4-[4-[[4-chloro-2-(difluoromethoxy)phenyl]carbamoyl]-4-(5-isopropylpyrazol-1-yl)-1-piperidyl]tetrahydrofuran-2-carboxylic acid] the value was 7.27; for `CC(C)c1c(F)cnn1C1(C(=O)Nc2ccc(Cl)cc2OC(F)F)CCN(C[C@H](C(=O)O)C2CCOCC2)CC1` [Compound 141, (28)-3-[4-[[4-chloro-2-(difluoromethoxy)phenyl]carbamoyl]-4-(4-fluoro-5-isopropyl-pyrazol-1-yl)-1-piperidyl]-2-tetrahydropyran-4-yl-propanoic acid], 7.59; for `COCCC(CN1CCC(C(=O)Nc2ccc(Cl)cc2OC(F)F)(n2nccc2C(C)C)CC1)C(=O)O` (centres unmarked) [Compound 142, 2-[[4-[[4-chloro-2-(difluoromethoxy)phenyl]carbamoyl]-4-(5-isopropylpyrazol-1-yl)-1-piperidyl]methyl]-4-methoxy-butanoic acid], 7.42.
`C=C(CN1CCC(C(=O)Nc2ccc(Cl)cc2OC(F)F)(n2nccc2C(C)C)CC1)C(=O)O` [Compound 143, 2-[[4-[[4-chloro-2-(difluoromethoxy)phenyl]carbamoyl]-4-(5-isopropylpyrazol-1-yl)-1-piperidyl]methyl]prop-2-enoic acid]: the negative-log IC50 (pIC50) is 7.49.

Source of the values: US20260102383A1, “LPAR1 Inhibitors” (AbbVie Inc., priority 2024, published 2026).
